Measured values published in US5153353A, “p-Oxybenzoic acid derivatives, process for the preparation thereof and use thereof as drug” (Klinge Pharma GmbH, priority 1990, dated 1992).

How the values were obtained:
[1] = tested on: cholesterol biosynthesis in rat liver homogenate; assay: Determination of the inhibition of cholesterol biosynthesis in rat liver homogenate (14C-acetate incorporation); assay type: biochemical; settings: compared with the blank value
Protocol: 2) Determination of the inhibition of cholesterol biosynthesis
3 g freshly prepared rat liver was homogenized in 6 ml ice-cooled puffer and centrifuged for 20 minutes at 20000×g. The supernatant was separated off and employed for the following determinations.
To a mixture of 110 μl supernatant and 300 μl incubation solution 10 μl of the methanolic test substance solution were pipetted and incubated at 37° C. for 20 minutes. Thereafter 10 μl of an ^14 C-acetate solution were added by pipette and incubated for a further 30 minutes. Thereafter, to the mixture 500 μl ethanolic KOH solution were added, further incubation carried out for 60 minutes at 75° C. and thereafter the reaction stopped in an ice bath. To enable a yield correction to be made for the subsequent extraction of the ^14 C-cholesterol formed ^3 H-cholesterol (about 10^-3 μCi) was added thereto by pipetting. In addition, 500 μl of an ethanolic solution of unmarked cholesterol was added. The cholesterol of the mixture was extracted twice with 1 ml petroleum ether in each case, the extract dried and taken up with 0.6 ml of an ethanol/acetone mixture (1/1). The dissolved cholesterol was then precipitated by means of 1.4 ml of a digitonin solution (=7 mg). After 15 h at 0° C. the precipitate was centrifuged off, dissolved with 0.5 ml methanol/glacial acetic acid (33/5) and diluted with 2 ml methanol. The radioactivity of the biosynthetically formed cholesterol was determined in 12 ml scintillation liquid (DIMILUME) by means of a scintillation counter.
Buffer: 6.8 g KH2 PO4, 0.6 g MgCl2, 0.37 g EDTA, 1.83 g nicotine amide, 51.35 g saccharose and 0.4 g mercaptoethanol were dissolved in distilled water and diluted to 500 ml (PH =7.2).
Incubation solution: The following were each individually dissolved:
8.6 mg NAD with 1.3 ml buffer
10.2 mg NADP with 1.3 ml buffer
39.6 mg glucose-6-phosphate with 0.65 ml buffer
31.6 mg glucose-6-phosphate-dehydrogenase (1000 U/0.91 ml) with 0.285 ml buffer
These solutions were not mixed until immediately prior to use.
Solution 1: 250 μCi ^14 C-sodium acetate in 1 ml aqua dest.
Solution 2: 512.5 mg sodium acetate in 10 ml aqua dest.
Prior to the test 0.1 ml of the solution 1 and 0.4 ml of the solution 2 were mixed and added to 2 ml aqua dest.
Ethanolic KOH: 10 g KOH were dissolved in 100 ml. ethanol
Method: R. E. Dugan et al. (Archives Biochem. Biophys. 152,21 (1972))

[2] = tested on: normolipemic, male Wister rats; assay: Determination of the hypolipemic effect in rats (serum total cholesterol and triglycerides after oral administration); assay type: in vivo, rat; settings: three administrations over three days
Protocol: 1) Determination of the hypolipemic effect in rats
The lipid-lowering effect of the test substances was examined in groups each of 10 normolipemic, male Wister rats of 200 to 220 g in weight.
The investigations were performed after a 3-week adaption training of the eating habits of the animals. The controlled feeding was carried out daily from 8 a.m. to 10 a.m. The test substances were administered at 11 a.m.
The test compounds were absorbed in an aqueous solution of 0.25% agar and 0.84% NaCl and administered orally. After three administrations over a period of three days blood was extracted from the animals.
The determination of cholesterol and triglycerides in the serum was made with the aid of the "Cobas-Bio" centrifugal analyzer of Hoffmann-La Roche.
a) Cholesterol determination CHOS-PAP method, enzymatic colour test according to J. Siedel et al. (J. Clin. Chem. Clin. Biochem. 19, 838 (1981))
b) Triglyceride determination Enzymatic cleavage of the triglycerides with the aid of specific lipases with subsequent determination of the liberated glycerol according to T. O. Tiffany et al. (Clin. Chem. 20, 476 (1974))

Structure (SMILES): CC(C)(CO)c1ccc(CCC(O)COc2ccc(C(=O)O)cc2)cc1 (stereo not drawn) [Compound 2]
- Percentage inhibition of cholesterol biosynthesis in rat liver homogenate ([1]; concentration 1 × 10^-4 Mol/l): 75%
- Percentage inhibition of cholesterol biosynthesis in rat liver homogenate ([1]; concentration 1 × 10^-5 Mol/l): 41%
- Percentage inhibition of cholesterol biosynthesis in rat liver homogenate ([1]; concentration 3 × 10^-5 Mol/l): 65%
- Percentage inhibition of cholesterol biosynthesis in rat liver homogenate ([1]; concentration 3 × 10^-6 Mol/l): 16%
- Percentage change of the total cholesterol (TC) level in the rat serum, X ± SD ([2]; 100 mg/kg): -39.7 ± 12.4%
- Percentage change of the triglyceride (TG) level in the rat serum, X ± SD ([2]; 100 mg/kg): -1.6 ± 21.4%

Structure (SMILES): CC(C)(C(=O)O)c1ccc(CCC(O)COc2ccc(C(=O)O)cc2)cc1 (stereo not drawn) [Compound 3, 4-{4-[4'-(1-carboxy-1-methylethyl)phenyl]-2-hydroxybutoxy}benzoic acid]
- Percentage inhibition of cholesterol biosynthesis in rat liver homogenate ([1]; concentration 1 × 10^-4 Mol/l): 70%
- Percentage inhibition of cholesterol biosynthesis in rat liver homogenate ([1]; concentration 1 × 10^-5 Mol/l): 29%
- Percentage inhibition of cholesterol biosynthesis in rat liver homogenate ([1]; concentration 3 × 10^-5 Mol/l): 56%
- Percentage inhibition of cholesterol biosynthesis in rat liver homogenate ([1]; concentration 3 × 10^-6 Mol/l): 14%
- Percentage change of the total cholesterol (TC) level in the rat serum, X ± SD ([2]; 100 mg/kg): -17.5 ± 6.2%
- Percentage change of the triglyceride (TG) level in the rat serum, X ± SD ([2]; 100 mg/kg): -19.4 ± 9.7%

Structure (SMILES): CCOC(=O)C(C)(C)Oc1ccc(Cl)cc1 [CLOFIBRAT, reference compound]
- Percentage change of the total cholesterol (TC) level in the rat serum, X ± SD ([2]; 100 mg/kg): -14.5 ± 12.0%
- Percentage change of the triglyceride (TG) level in the rat serum, X ± SD ([2]; 100 mg/kg): -29.2 ± 19.4%

Structure (SMILES): CC(C)(C)c1ccc(CCC(O)COc2ccc(C(=O)OCC(O)CO)cc2)cc1 (stereo not drawn) [Compound 1, 4-[4-(4'-tert. butylphenyl)-2-hydoxybutoxy]benzoic acid-2,3-dihydroxypropylester]
- Percentage inhibition of cholesterol biosynthesis in rat liver homogenate ([1]; concentration 1 × 10^-4 Mol/l): 68%
- Percentage inhibition of cholesterol biosynthesis in rat liver homogenate ([1]; concentration 1 × 10^-5 Mol/l): 34%
- Percentage inhibition of cholesterol biosynthesis in rat liver homogenate ([1]; concentration 3 × 10^-5 Mol/l): 57%
- Percentage inhibition of cholesterol biosynthesis in rat liver homogenate ([1]; concentration 3 × 10^-6 Mol/l): 0%
- Percentage change of the total cholesterol (TC) level in the rat serum, X ± SD ([2]; 10 mg/kg): +3.8 ± 16.4%
- Percentage change of the triglyceride (TG) level in the rat serum, X ± SD ([2]; 10 mg/kg): -26.2 ± 51.1%
- Percentage change of the total cholesterol (TC) level in the rat serum, X ± SD ([2]; 30 mg/kg): -17.1 ± 13.9%
- Percentage change of the triglyceride (TG) level in the rat serum, X ± SD ([2]; 30 mg/kg): -28.5 ± 9.0%
- Percentage change of the total cholesterol (TC) level in the rat serum, X ± SD ([2]; 100 mg/kg): -44.1 ± 10.8%
- Percentage change of the triglyceride (TG) level in the rat serum, X ± SD ([2]; 100 mg/kg): -34.7 ± 8.6%
